This assay can be described thus: Antagonist activity against PAR2 in human HT29 cells assessed as inhibition of UTP-induced Ca2+ responses pre-incubated for 30 mins before UTP stimulation by FLIPR assay.

For the compound `CCOC(=O)[C@H]1CCCN(C(=O)c2cn3nc(-c4ccc(F)cc4)cc(C(F)(F)F)c3n2)[C@@H]1C`, the half-maximal inhibitory concentration (IC50) worked out at 4.4 µM.

The values are drawn from BindingDB's records for doi:10.1021/acsmedchemlett.5b00147 (Therachem Research Medilab (India), 2015).
